Read-outs that look alike come from different tables or passages of the source.
Tests used:
[1] = test system: Kunming mice; experiment: Acute toxicity in mice; assay type: in vivo
Procedure: For acute hypoglycemia test, male rats (150–250 g) were used. […].
Acute toxicological signs of included activities, nervous system response, autonomic nervous system response and death of mice were observed after a single oral dose of 2000 mg/kg.

[2] = test system: TG, LDL-C; experiment: TG and LDL-C plasma levels in model rats; assay type: in vivo, rat
Procedure: (§1) To establish model of T2DM, male rats (80–100 g, 9-week-old)[49] were fed high fat diet (HFD) (20% sugar, 10% lard, 10% egg yolk and 60% basal feed) after a week of normal diet. After 4 weeks, rats were injected once with low-dose streptozotocin (Solarbio, China) (STZ, 30 mg/kg i.p) to induce partial insulin deficiency, and then continuously fed HFD for 4 weeks after injection of STZ. Then the model rats were oral administrated drugs for 30 days. The body weights were recorded once a week.
(§2) Oral glucose load, fasted and random blood samples were collected from rats on the 28th days, the 29th days and the last of the treatment of drugs, respectively. Plasma levels of insulin and GLP-1 were measured by ELISA kits (YuanYe, China) according to the manufacturer’s recommendation. The levels of HbA1c, Triglycerides (TG), total cholesterol (TC) and low density lipoprotein cholesterol (LDL-C) in blood samples were measured by commercial assay kits (JianCheng, Nanjing, China) according to the manufacturer’s directions.

[3] = test system: 293 cells; experiment: Cytotoxicity in 293 cells (CCK-8); assay type: cell-based; conditions: 12 h
Procedure: The toxicities of CMD-05 on HT22, 293 and […] cell lines was assessed using Cell Counting Kit-8 (CCK-8) (Biosharp, China). Briefly, the cells were plated on 96-well plates. […] The absorbance at 450 nm was measured using a microplate spectrophotometer.

[4] = Pharmacokinetics in rats; assay type: in vivo, rat
Procedure: Male SD rats (200–220 g) were fasted overnight to administration of CMD-05 intravenously via tail vein (50 mg/kg, n = 4) or by oral gavage (50 mg/kg, n = 4). Blood samples of 0.3 ml were collected from the orbital venous at 1 min, 3 min, 5 min, 15 min, 30 min, 60 min, 120 min, 240 min, 480 min, 720 min after tail vein injection of CMD-05 and at 15 min, 30 min, 45 min, 60 min, 120 min, 240 min, 480 min, 720 min after oral of CMD-05. Plasma was obtained after centrifugation. The concentrations of CMD-05 in plasma were determined by HPLC method. The pharmacokinetic parameters of CMD-05 in the rats were analyzed by DAS2 software.

[5] = test system: GLP-1; experiment: Plasma GLP-1 levels in model rats (ELISA); assay type: in vivo, rat; conditions: 4.5 mg/kg, glucose load and random plasma
Procedure: as §1, §2

[6] = target: T1, recombinant human DPP-IV (Homo sapiens, UniProt P27487); experiment: Recombinant human DPP-IV activity assay; assay type: biochemical; conditions: Gly-Pro-MCA substrate, read-out: IC50 of DPP-IV inhibition
T1 construct: purchased R&D systems, USA
T1 sequence (P27487 whole entry): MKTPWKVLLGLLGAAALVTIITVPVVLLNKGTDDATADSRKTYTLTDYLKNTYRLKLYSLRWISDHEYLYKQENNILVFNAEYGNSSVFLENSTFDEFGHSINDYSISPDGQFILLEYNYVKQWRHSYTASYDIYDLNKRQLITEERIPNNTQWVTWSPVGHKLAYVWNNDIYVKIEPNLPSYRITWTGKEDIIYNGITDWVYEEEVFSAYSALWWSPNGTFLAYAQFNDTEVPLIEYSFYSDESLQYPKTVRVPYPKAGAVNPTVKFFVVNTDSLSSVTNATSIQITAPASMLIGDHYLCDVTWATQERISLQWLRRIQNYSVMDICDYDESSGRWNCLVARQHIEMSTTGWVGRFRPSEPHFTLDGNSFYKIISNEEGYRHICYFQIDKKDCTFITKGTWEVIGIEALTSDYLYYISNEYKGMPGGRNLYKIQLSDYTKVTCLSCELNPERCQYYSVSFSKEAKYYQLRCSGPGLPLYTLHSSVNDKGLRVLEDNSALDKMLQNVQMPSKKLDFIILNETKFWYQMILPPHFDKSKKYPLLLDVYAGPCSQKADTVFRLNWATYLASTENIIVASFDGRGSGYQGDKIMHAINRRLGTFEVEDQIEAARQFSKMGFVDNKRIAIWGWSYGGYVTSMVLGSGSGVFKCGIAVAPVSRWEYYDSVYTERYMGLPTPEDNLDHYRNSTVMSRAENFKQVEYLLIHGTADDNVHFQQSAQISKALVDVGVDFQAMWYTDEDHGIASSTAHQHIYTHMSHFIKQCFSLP
Procedure: DPP-IV inhibition assay was carried out using either 5 ng purified recombinant human DPP-IV (rhDPP-IV) (R&D systems, USA). Recombinant DPP-IV was mixed with ddH2O in an assay buffer (25 mM Tris-HCl, 0.2 M NaCl, 0.1% BSA, pH 7.3). […] The vehicle comprised 1% DMSO in place of test compounds. […] The fluorescence intensity of AMC corresponded to DPP-IV activity.

[7] = test system: INS-1 cells; experiment: Proliferation of INS-1 cells (CCK-8); assay type: cell-based, rat; conditions: 1 × 10^−4 and 3 × 10^−5 M, 24 h, CCK-8, vs DMSO
Procedure: The rat insulinoma cell line INS-1 (832/13) was obtained from the Department of endocrinology at 1st affiliated hospital of Chongqing medical university. Cells were cultured in RPMI 1640 (Gibco, USA) (11 mmol/l glucose, 100 units/ml penicillin, […] streptomycin, 10 mmol/l HEPES pH 7.4) supplemented with 10% FBS (Gibco, USA), 2 mmol/l L-glutamine, 1 mmol/l pyruvate, and 50 μmol/l β-mercaptoethanol. […] 10 μl of CCK-8 was then added and incubated at 37 °C and 5% CO2 for 1.5 h and […] (OD) was read at 460 nm with microplate reader. The OD value represents the proliferation activity.

[8] = Body weight of model rats; assay type: in vivo, rat; conditions: 30 days treatment
Procedure: as §1

N#C[C@@H]1CCCN1C(=O)CN(C(=O)CCCCCl)C12CC3CC(CC(O)(C3)C1)C2 [CMD-05]
maximum tolerance dose ([1]; oral): > 2000 mg/kg
acute toxicity signs ([1]; single oral dose of 2000 mg/kg): no toxicological signs
reduction of LDL-C level ([2]; 0.5 mg/kg): 9%
reduction of TG level ([2]; 0.5 mg/kg): 22.41%
reduction of LDL-C level ([2]; 1.5 mg/kg): 12.60%
reduction of TG level ([2]; 1.5 mg/kg): 37.07%
reduction of LDL-C level ([2]; 4.5 mg/kg): 17.91%
reduction of TG level ([2]; 4.5 mg/kg): 42.67%
plasma lipids levels ([2]; 4.5 mg/kg continuously for 30 days): decreased to normal level
cytotoxicity (cell viability) ([3]; 1 × 10^−4 M): slightly reduced cell viability
cytotoxicity (cell viability) ([3]; 3 × 10^−6 to 1 × 10^−5 M): did not induce significant cytotoxicity
effect of food on pharmacokinetics ([4]; healthy rats): not affected by food
half-life ([4]; male, SD, rat, plasma, oral, 50 mg/kg, rats, 50 mg/kg, read-out: half-life): 4.8 h
Tmax ([4]; male, SD, rat, plasma, po, 50 mg/kg, rats, single oral 50 mg/kg, read-out: time to peak plasma concentration (converted)): 0.5 h
bioavailability ([4]; male, SD, rat, plasma, rats, 50 mg/kg oral vs intravenous, read-out: absolute bioavailability): 84.5%
half-life ([4]; rats, 50 mg/kg): 4.798 ± 0.437 h
time to peak plasma concentration ([4]; rats, single oral 50 mg/kg, 50 mg/kg): 30 to 45 min
levels of GLP-1 in plasma [5]: significantly increased
IC50 [6]: 12 nM
cells viabilities (proliferation) of INS-1 cells [7]: increased
body weights vs model group [8]: no significant difference

— PMC5390258, “CMD-05, a novel promising clinical anti-diabetic drug candidate, in vivo and vitro studies” (Scientific Reports, 2017)
